According to US4169834A, “Rifamycin derivatives” (Gruppo Lepetit S.p.A., priority 1977, dated 1979):
Converted amounts (≈) assume the structure as drawn.

Assays:
Type in all cases: cell-based
Escherichia coli = test: in vitro antibacterial activity (MIC), Escherichia coli
Source text: (§1) The MIC is expressed as μg/ml.

Pseud. aeruginosa = test: in vitro antibacterial activity (MIC), Pseud. aeruginosa; conditions: Pseudomonas aeruginosa
Source text: as §1

Staph. Aureus = test: in vitro antibacterial activity (MIC), Staph. Aureus; conditions: Staphylococcus aureus
Source text: as §1

Proteus vulgaris = test: in vitro antibacterial activity (MIC), Proteus vulgaris
Source text: as §1

Strept. pneumoniae = test: in vitro antibacterial activity (MIC), Strept. pneumoniae; conditions: Streptococcus pneumoniae
Source text: as §1

Strept. faecalis = test: in vitro antibacterial activity (MIC), Strept. faecalis; conditions: Enterococcus faecalis
Source text: as §1

Myc. Tub. H37 Rv = test: in vitro antibacterial activity (MIC), Myc. Tub. H37 Rv
Strept. haemolyticus = test: in vitro antibacterial activity (MIC), Strept. haemolyticus
Source text: as §1

Staph. Aureus Tour = test: in vitro antibacterial activity (MIC), Staph. Aureus Tour; conditions: Staphylococcus aureus
Source text: as §1

Kleb. pneumoniae = test: in vitro antibacterial activity (MIC), Kleb. pneumoniae; conditions: Klebsiella pneumoniae
Source text: as §1

Row | SMILES | MIC (Escherichia coli) [µg/mL] | MIC (Pseud. aeruginosa) [µg/mL] | MIC (Staph. Aureus) [µg/mL] | MIC (Proteus vulgaris) [µg/mL] | MIC (Strept. pneumoniae) [µg/mL] | MIC (Strept. faecalis) [µg/mL] | MIC (Myc. Tub. H37 Rv) [µg/mL] | MIC (Strept. haemolyticus) [µg/mL] | MIC (Staph. Aureus Tour) [µg/mL] | MIC (Kleb. pneumoniae) [µg/mL]
1 | CCc1nc2c(s1)c1c(O)c3c(O)c(C)c4c(c32)C(=O)C(C)(OC=CC(OC)C(C)C(OC(C)=O)C(C)C(O)C(C)C(O)C(C)C=CC=C(C)C(=O)N1)O4 (stereo not shown) [Example 1, 4-Deoxy-2'-ethyl-thiazolo[5,4-c]rifamycin SV] | 12.5 (≈ 16.3 µM) | 12.5 (≈ 16.3 µM) | 0.0004 (≈ 0.000522 µM) | 6.25 (≈ 8.15 µM) | 0.0062 (≈ 0.00808 µM) | 0.0062 (≈ 0.00808 µM) | 0.31 (≈ 0.404 µM) | 0.012 (≈ 0.0156 µM) | 0.00078 (≈ 0.00102 µM) | 25 (≈ 32.6 µM)
2 | COC1C=COC2(C)Oc3c(C)c(O)c4c(O)c(c5sc(C)nc5c4c3C2=O)NC(=O)C(C)=CC=CC(C)C(O)C(C)C(O)C(C)C(OC(C)=O)C1C (stereo not shown) [Example 2, 4-Deoxy-2'-methyl-thiazolo[5,4-c]rifamycin SV] | 12.5 (≈ 16.6 µM) | 25 (≈ 33.2 µM) | 0.00078 (≈ 0.00104 µM) | 1.56 (≈ 2.07 µM) | 0.0062 (≈ 0.00824 µM) | 0.0031 (≈ 0.00412 µM) | 0.62 (≈ 0.824 µM) | 0.0031 (≈ 0.00412 µM) | 0.0031 (≈ 0.00412 µM) | 25 (≈ 33.2 µM)
3 | CCCc1nc2c(s1)c1c(O)c3c(O)c(C)c4c(c32)C(=O)C(C)(OC=CC(OC)C(C)C(OC(C)=O)C(C)C(O)C(C)C(O)C(C)C=CC=C(C)C(=O)N1)O4 (stereo not shown) [Example 3, 4-Deoxy-2'-propyl-thiazolo[5,4-c]rifamycin SV] | 12.5 (≈ 16 µM) | 12.5 (≈ 16 µM) | 0.00078 (≈ 0.000999 µM) | 3.12 (≈ 4 µM) | 0.00078 (≈ 0.000999 µM) | 0.00156 (≈ 0.002 µM) | 0.62 (≈ 0.794 µM) | 0.0031 (≈ 0.00397 µM) | 0.00156 (≈ 0.002 µM) | 25 (≈ 32 µM)
4 | COC1C=COC2(C)Oc3c(C)c(O)c4c(O)c(c5sc(C(C)C)nc5c4c3C2=O)NC(=O)C(C)=CC=CC(C)C(O)C(C)C(O)C(C)C(OC(C)=O)C1C (stereo not shown) [Example 4, 4-Deoxy-2'-isopropyl-thiazolo[5,4-c]rifamycin SV] | 12.5 (≈ 16 µM) | 12.5 (≈ 16 µM) | 0.00078 (≈ 0.000999 µM) | 6.25 (≈ 8 µM) | 0.012 (≈ 0.0154 µM) | 0.012 (≈ 0.0154 µM) | 0.31 (≈ 0.397 µM) | 0.012 (≈ 0.0154 µM) | 0.00156 (≈ 0.002 µM) | 25 (≈ 32 µM)
5 | COC1C=COC2(C)Oc3c(C)c(O)c4c(O)c(c5sc(CC(C)C)nc5c4c3C2=O)NC(=O)C(C)=CC=CC(C)C(O)C(C)C(O)C(C)C(OC(C)=O)C1C (stereo not shown) [Example 5, 4-Deoxy-2'-isobutyl-thiazolo[5,4-c]rifamycin SV] | 12.5 (≈ 15.7 µM) | 12.5 (≈ 15.7 µM) | 0.00078 (≈ 0.000981 µM) | 3.12 (≈ 3.92 µM) | 0.0062 (≈ 0.0078 µM) | 0.0062 (≈ 0.0078 µM) | 0.15 (≈ 0.189 µM) | 0.001 (≈ 0.00126 µM) | 0.001 (≈ 0.00126 µM) | 50 (≈ 62.9 µM)
6 | CCCCCCc1nc2c(s1)c1c(O)c3c(O)c(C)c4c(c32)C(=O)C(C)(OC=CC(OC)C(C)C(OC(C)=O)C(C)C(O)C(C)C(O)C(C)C=CC=C(C)C(=O)N1)O4 (stereo not shown) [Example 6, 4-Deoxy-2'-hexyl-thiazolo[5,4-c]rifamycin SV] | 12.5 (≈ 15.2 µM) | 12.5 (≈ 15.2 µM) | 0.0012 (≈ 0.00146 µM) | 3.12 (≈ 3.79 µM) | 0.012 (≈ 0.0146 µM) | 0.012 (≈ 0.0146 µM) | 1.2 (≈ 1.46 µM) | 0.012 (≈ 0.0146 µM) | 0.0031 (≈ 0.00377 µM) | 25 (≈ 30.4 µM)
7 | COC1C=COC2(C)Oc3c(C)c(O)c4c(O)c(c5scnc5c4c3C2=O)NC(=O)C(C)=CC=CC(C)C(O)C(C)C(O)C(C)C(O)C1C (stereo not shown) [Example 8, 25-Desacetyl-4-deoxy-thiazolo[5,4-c]rifamycin SV] | 6.25 (≈ 8.97 µM) | 12.5 (≈ 17.9 µM) | 0.02 (≈ 0.0287 µM) | 0.78 (≈ 1.12 µM) | 0.1 (≈ 0.144 µM) | 0.4 (≈ 0.574 µM) | 0.6 (≈ 0.861 µM) | 0.1 (≈ 0.144 µM) | 0.1 (≈ 0.144 µM) | 12.5 (≈ 17.9 µM)
